From patent publication US7122569B2, “Ethylene glycol esters as photoactive agents” (priority 1997, dated 2006) come the findings set out here.

In one series the test system is M1 tumors. In words: In vivo photodynamic therapy in mice harboring M1 tumors, tumor-free on day 7. The note with it: 1 mg/kg IV, 50 J/cm^2 690 nm. From the text:
This was followed by whole body irradiation with 50 J/cm^2 of 690 nm laser light at various times after administration of the drug.

Series [1] has as its system dendritic cell line D2SC/1. Description: In vitro photocytotoxicity on dendritic cell line D2SC/1, 690 nm light 5 J/cm^2, MTT. In kind it is cell-based. To be noted: dendritic cells, 5% fetal calf serum, 690 nm 5 J/cm^2. The protocol:
(§1) Either L1210 cells or the dendritic cell line D2SC/1 was incubated for one hour at 37° C. with either A-EA6 or BPD-MA. After removal of excess drug, the cells were exposed to 690 nm light at 5 J/cm^2 light. Cell survival was determined 18–24 hours later using the MTT colorimetric assay described in Example 5. Percent cells killed was calculated by reference to cells exposed to light only. […] The open circles represent A-EA6 plus serum; the closed circles represent BPD-MA plus serum; open squares represent A-EA6 in the absence of serum; and closed squares represent BPD-MA in the absence of serum.

The subject of a further series is L1210 cells. In words: In vitro photocytotoxicity on L1210 cells, 690 nm light 5 J/cm^2, MTT. It counts as cell-based, murine. The note with it: 690 nm 5 J/cm^2. The protocol:
as §1

For the next series, the system named is MHC I receptors. In words: Surface expression of MHC I receptors on dendritic cells after PDT, flow cytometry. In kind it is cell-based. The note with it: 690 nm 5 J/cm^2, 3 hours post-treatment. As to the method:
The cells were treated with 690 nm light at 5 J/cm^2 and then labeled with the appropriate antibody 3 hours post-treatment and assessed by flow cytometry. The results were measured as the percent of the mean channel fluorescence intensity for light-treated control cells.

The test system of series [2] is mitogenic pathway kinase p70 S6K. Description: PDT effect on mitogenic pathway kinase in HL-60 cells. It counts as cell-based. The note with it: sublethal concentrations. The text has this: (§2) The conditions of the study set forth in Example 11 were repeated using HL-60 cells as the target and comparing the effects of A-EA6 and BPD-MA on cytotoxicity, on the mitogenic pathway kinase p70 S6K, and on the stress pathway kinases c-jun and HSP27.

For series [3], the system named is antigen-induced ear swelling. In words: Immunomodulatory activity, whole-body PDT, suppression of ear swelling. To be noted: red LED light 15 J/cm^2. It counts as in vivo, mice. The protocol:
Flanks of control and test mice were painted with the antigen DMFB and their ears were challenged 5 days later by pasting with the same compound. […] The percent suppression of ear swelling was calculated in comparison to controls.

The next series relates to HL-60 cells. In words: DNA fragmentation in HL-60 cells after PDT. In kind it is cell-based.
The subject of another series is caspases. Description: Caspase activation in HL-60 cells after PDT. In kind it is cell-based. The protocol:
The effect on caspase activation in HL-60 cells was also measured. […] This effect is desirable as it is associated with apoptosis. Using apoptosis to remove unwanted cells causes the least effect on surrounding normal cells and tissues.

For series [4], the system named is stress pathway kinases c-jun and HSP27. In words: PDT effect on stress pathway kinases in HL-60 cells. To be noted: sublethal concentrations. It counts as cell-based.
Source text: as §2

Take `C=Cc1c(C)c2cc3nc(cc4[nH]c(cc5nc(cc1[nH]2)C(C)=C5CCC(=O)OCCO)c(CCC(=O)OCCO)c4C)C1(C)C3=CC=C(C(=O)OC)C1C(=O)OC` (stereo not shown) [A-EA6]: the “Day 7 tumor-free animals” value with M1 tumors (irradiation 15 min post i.v.) is on record as 2/2; with M1 tumors (irradiation 30 min post i.v.), 6/6. The LD50 in series [1] turned out to be 2.7 ng/mL. The “cytotoxicity compared with BPD-MA” value in the series on L1210 cells (absence of serum) is given as “comparable cytotoxicity to BPD-MA”; in the series on L1210 cells (presence of serum), “markedly more toxic”. In addition, the “reduction of MHC I mean channel fluorescence vs light-treated control cells” value in the series on MHC I receptors (1 ng/ml) and in the series with MHC I receptors (2.5 ng/ml) was “approximately 25%” in each case. In addition, the “inhibition of mitogenic pathway kinases compared with BPD-MA” value in series [2] is given as “stronger inhibition of the mitogenic pathway kinases”. In addition, the “Percent suppression of ear swelling” value stood at 59% in [3] (0.3 mg/kg IV) and 68% in series [3] (1.0 mg/kg IV). The “percent DNA fragmentation compared with BPD-MA” value in the series on HL-60 cells is given as “effective at lower concentrations than BPD-MA”. Also, the “caspase activation compared with BPD-MA” value in the series with caspases is “stronger activation of caspases”. In addition, the “activation of stress pathway kinases compared with BPD-MA” value in series [4] is “stronger activation of the stress pathway kinases”.
